According to patent US20120329117A1, “CONTROL OF CONTAMINANT MICROORGANISMS IN FERMENTATION PROCESSES WITH SYNERGISTIC FORMULATIONS CONTAINING STABILIZED CHLORINE DIOXIDE AND PEROXIDE COMPOUND” (E.I. DU PONT DE NEMOURS AND COMPANY, priority 2010, published 2012):

System: L. brevis
Experiment: Reduction of lactic acid bacteria in inoculated corn mash (plate count on MRS agar)
Assay type: cell-based, Lactobacillus brevis
Conditions: corn mash inoculated with L. brevis
Protocol: In this example, corn mash was obtained from a commercial ethanol plant immediately after the liquefaction step. The mash was cooled to room temperature and then inoculated with L. brevis cultures prepared as was described in Example 1. 50 ml portions of the inoculated corn mash were treated with SCD, HP and a combination of both as follows:
Following treatment, the samples were incubated for 2 hours in a shaking incubator. Surviving bacteria in each sample was enumerated by plating serial dilutions of each on MRS agar plates (available from Difco Laboratories, Inc., Sparks, Md.) and further incubating the plates for 48 hours at 32° C.

SMILES: OO [HP, hydrogen peroxide]
- Viable cells after 2 hours (50 ppm HP): 7.48 Log CFU/g
- Viable cells after 2 hours (100 ppm HP): 5.97 Log CFU/g
